Test results as given in patent US3931198A, “2-Amino-5-spiro substituted oxazoline-4-one compounds” (Abbott Laboratories, priority 1973, dated 1976).

Legend:
central nervous system = assay: CNS activity (depressant or stimulant) in test mice; type: in vivo; details: i.p.
Procedure: (§1) Table VI below details the activity of the various species of this series along with the dosages utilized expressed in mg/kg of body weight and the lethal dosage at which 50 percent of the animals expire (^LD 50) for each of the compounds. Unless otherwise indicated, the dosage and the ^LD 50 were administered by intraperitoneal injection. It is to be understood, of course, that the particular route of administration is not critical to the manifestation of biological effects.

[1] = LD50, lethal dosage at which 50 percent of the animals expire; details: mouse, in vivo, ip; mice, intraperitoneal injection unless otherwise indicated
Procedure: as §1

rats = assay: Learning and retention (escape time, jump out test) after electroconvulsive shock on a modified Cook-Weidley apparatus; type: in vivo; details: for Mean Escape Time, Retention Trial: 1 hour after last acquisition trial
Procedure: In addition to the foregoing activity, the administration of some of these novel compounds to warm-blooded animals results in an increased rate of learning by the animal coupled with a prolonged period of retention of the learned behavior.
The behavioral effects resulting from the administration of these compounds to rats were evaluated on a modified Cook-Weidley apparatus (L. Cook and E. Weidley, Ann. N.Y. Acad. Sci., 66, 790, 1957). The apparatus consists of a chamber with a grid flooring and an escape platform outside the chamber. The electric shock to the grid floor was controlled by a rheostat mechanism and scrambler. Rats were divided into 2 groups for each test trial. One group was administered saline as the control and the other group the test compound about 1/2 hour prior to electroconvulsive shock. It is known that electroconvulsive shock induces a state of proactive amnesia or an impaired learning rate (Deutsch, J.A., 1962, Ann. Rev. Psychol., 24, 259). Then, 15 minutes after electroconvulsive shock, the rats were given 10 acquisition trials on the jump out test to measure learning rates. Each acquisition trial consisted of 15 seconds in the chamber without any stimulation followed by 10 seconds of buzzer stimulation and culminated by 5 seconds of buzzer-plus-shock stimulation. The time from entrance into the apparatus until the rat jumps out is recorded as the escape time. Retention of the learned behavioral pattern was tested by repeating the test one hour after the last acquisition trial. The test sequence for each trial was terminated upon successful completion of the task, e.g., jumping out of the chamber. EFFECT OF 2-AMINO-8-METHYL-1-OXA-3,8-DIAZASPIRO [4,5]DEC-2-EN-4-ONE INTRAPERITONEAL ADMINISTRATION Mean Escape Time -- Sec. Trial Test Cpd. -- 10 mg/kg Control ______________________________________ 1 29.8 ± 0.3 30.0 ± 0.0 2 29.5 ± 0.5 29.3 ± 0.8 3 13.8 ± 1.7 26.0 ± 2.4 4 12.0 ± 2.1 22.0 ± 3.6 5 7.0 ± 1.6 22.3 ± 3.8 6 7.8 ± 1.5 18.5 ± 1.9 7 6.5 ± 1.6 18.0 ± 2.3 8 7.0 ± 2.2 13.0 ± 2.9 9 10.8 ± 3.0 15.6 ± 2.1 10 9.0 ± 1.2 13.9 ± 1.7 Retention Trial -- 1 hour after last Acquisition Trial: 13.8 ± 1.4 15.8 ± 3.3 EFFECT OF 2-AMINO-7,7,9-TRIMETHYL-1-OXA-3-AZASPIRO [4,5]DEC-2-EN-4-ONE INTRAPERITONEAL ADMINISTRATION Mean Escape Time -- Sec. Trial Test Cpd. 20 mg/kg Control ______________________________________ 1 30.0 ± 0.0 30.0 ± 0.0 2 29.0 ± 0.4 29.5 ± 0.2 3 21.2 ± 3.0 19.7 ± 5.2 4 17.7 ± 5.4 20.2 ± 5.3 5 14.7 ± 1.8 18.0 ± 2.7 6 18.0 ± 3.9 18.5 ± 3.6 7 10.0 ± 2.1 20.2 ± 4.7 8 5.5 ± 1.8 16.5 ± 3.8 9 6.7 ± 2.5 18.7 ± 5.0 10 7.2 ± 2.8 13.7 ± 4.4 Retention Trial -- 1 hour after last Acquisition Trial: 8.0 ± 2.6 20.2 ± 3.3 EFFECT OF 2-AMINO-7,9-DIMETHYL-1-OXA-3-AZASPIRO [4,5]DEC-2-EN-4-ONE ORAL ADMINISTRATION Mean Escape Time -- Sec. Trial Test Cpd. -- 20 mg/kg Control ______________________________________ 1 30.0 ± 0.0 30.0 ± 0.0 2 29.2 ± 0.4 29.7 ± 0.2 3 20.0 ± 4.3 27.2 ± 1.8 4 7.5 ± 2.9 19.7 ± 2.4 5 4.7 ± 0.8 16.0 ± 3.2 6 7.2 ± 2.0 14.7 ± 3.6 7 8.0 ± 1.6 18.7 ± 4.5 8 10.5 ± 3.7 11.0 ± 2.6 9 7.0 ± 1.2 13.0 ± 3.2 10 7.5 ± 2.1 15.5 ± 4.1 Retention Trial -- 1 hour after last Acquisition Trial: 6.7 ± 1.4 15.7 ± 5.0 ______________________________________

**Q.** What does the source list for `CC1CC(C)(C)CC2(C1)OC(N)=NC2=O` (stereo not drawn) [2-amino-7,7,9-trimethyl-1-oxa-3-azaspiro[4,5]dec-2-en-4-one]?
**A.** Activity (central nervous system; dose 0.1 mg/kg): stimulant; LD50 [1]: > 750 mg/kg; Mean Escape Time, Retention Trial (rats; intraperitoneal, 20 mg/kg): 8.0 ± 2.6 s; Mean Escape Time (rats; intraperitoneal, 20 mg/kg, acquisition trial 1): 30.0 ± 0.0 s; Mean Escape Time (rats; intraperitoneal, 20 mg/kg, acquisition trial 2): 29.0 ± 0.4 s; Mean Escape Time (rats; intraperitoneal, 20 mg/kg, acquisition trial 3): 21.2 ± 3.0 s; Mean Escape Time (rats; intraperitoneal, 20 mg/kg, acquisition trial 4): 17.7 ± 5.4 s; Mean Escape Time (rats; intraperitoneal, 20 mg/kg, acquisition trial 5): 14.7 ± 1.8 s; Mean Escape Time (rats; intraperitoneal, 20 mg/kg, acquisition trial 6): 18.0 ± 3.9 s; Mean Escape Time (rats; intraperitoneal, 20 mg/kg, acquisition trial 7): 10.0 ± 2.1 s; Mean Escape Time (rats; intraperitoneal, 20 mg/kg, acquisition trial 8): 5.5 ± 1.8 s; Mean Escape Time (rats; intraperitoneal, 20 mg/kg, acquisition trial 9): 6.7 ± 2.5 s; Mean Escape Time (rats; intraperitoneal, 20 mg/kg, acquisition trial 10): 7.2 ± 2.8 s

**Q.** Which Activity (central nervous system; dose 500 mg/kg) does the source give for `NC1=NC(=O)C2(CCCC2)O1` [2-amino-1-oxa-3-azaspiro[4,4]non-2-en-4-one] here?
**A.** depressant

**Q.** What about the LD50 [1] of the same molecule?
**A.** > 1000 mg/kg

**Q.** Which results are given for `CC1CC(C)CC2(C1)OC(N)=NC2=O` (stereo not drawn) [2-amino-7,9-dimethyl-1-oxa-3-aza-spiro[4,5]dec-2-en-4-one]?
**A.** Activity (central nervous system; dose 1 mg/kg): stimulant; LD50 [1]: ~300 mg/kg; Mean Escape Time, Retention Trial (rats; oral, 20 mg/kg): 6.7 ± 1.4 s; Mean Escape Time (rats; oral, 20 mg/kg, acquisition trial 1): 30.0 ± 0.0 s; Mean Escape Time (rats; oral, 20 mg/kg, acquisition trial 2): 29.2 ± 0.4 s; Mean Escape Time (rats; oral, 20 mg/kg, acquisition trial 3): 20.0 ± 4.3 s; Mean Escape Time (rats; oral, 20 mg/kg, acquisition trial 4): 7.5 ± 2.9 s; Mean Escape Time (rats; oral, 20 mg/kg, acquisition trial 5): 4.7 ± 0.8 s; Mean Escape Time (rats; oral, 20 mg/kg, acquisition trial 6): 7.2 ± 2.0 s; Mean Escape Time (rats; oral, 20 mg/kg, acquisition trial 7): 8.0 ± 1.6 s; Mean Escape Time (rats; oral, 20 mg/kg, acquisition trial 8): 10.5 ± 3.7 s; Mean Escape Time (rats; oral, 20 mg/kg, acquisition trial 9): 7.0 ± 1.2 s; Mean Escape Time (rats; oral, 20 mg/kg, acquisition trial 10): 7.5 ± 2.1 s

**Q.** Which Activity (central nervous system; dose 200 mg/kg) does the source give for `NC1=NC(=O)C2(CCCCC2)O1` [2-amino-1-oxa-3-azaspiro[4,5]dec-2-en-4-one] here?
**A.** depressant

**Q.** What about the LD50 [1] of the same molecule?
**A.** > 1000 mg/kg

**Q.** Which results are given for `CC(C)N1CCC2(CC1)OC(N)=NC2=O` [2-amino-8-isopropyl-1-oxa-3,8-diazaspiro-[4,5]dec-2-en-4-one]?
**A.** Activity (central nervous system; dose 100 mg/kg): depressant; LD50 [1]: 1000 mg/kg

**Q.** Which Activity (central nervous system; dose 50 mg/kg) does the source give for `NC1=NC(=O)C2(CCNCC2)O1` [2-amino-1-oxa-3,8-diazaspiro[4,5]dec-2-en-4-one] here?
**A.** depressant

**Q.** What about the LD50 [1] of the same molecule?
**A.** > 1000 mg/kg

**Q.** What does the source list for `CC1CCCC2(C1)OC(N)=NC2=O` (stereo not drawn) [2-amino-7-methyl-1-oxa-3-aza-spiro[4,5]dec-2-en-4-one]?
**A.** Activity (central nervous system; dose 200 mg/kg): depressant; LD50 [1]: ~750 mg/kg

**Q.** With `CC1CC2(CC(C)C1C)OC(N)=NC2=O` (stereo not drawn) [2-amino-7,8,9-trimethyl-1-oxa-3-azaspiro[4,5]dec-2-en-4-one] as the molecule, how does the Activity (central nervous system; dose 200 mg/kg) read?
**A.** depressant

**Q.** What about the LD50 [1] of the same molecule?
**A.** > 1000 mg/kg

**Q.** What does the source list for `CC1CC2(CC(C)N1C)OC(N)=NC2=O` (stereo not drawn) [2-amino-7,8,9-trimethyl-1-oxa-3,8-diazaspiro[4,5]-2-en-4-one]?
**A.** Activity (central nervous system; dose 20 mg/kg): depressant; LD50 [1]: > 500 mg/kg

**Q.** Which Activity (central nervous system; dose 200 mg/kg) does the source give for `NC1=NC(=O)C2(CCN(CCc3ccccc3)CC2)O1` [2-amino-8-phenethyl-1-oxa-3,8-diazaspiro-[4,5]dec-2-en-4-one] here?
**A.** depressant

**Q.** What about the LD50 [1] of the same molecule?
**A.** > 1000 mg/kg

**Q.** What does the source list for `NC1=NC(=O)C2(CC3CCC2C3)O1` (stereo not drawn) [2'-aminospiro[norbornane-2,5'-[2]oxazolin]-4'-one]?
**A.** Activity (central nervous system; dose 500 mg/kg): depressant; LD50 [1]: > 1000 mg/kg

**Q.** For `CC1CCC2(CC1)OC(N)=NC2=O` (stereo not drawn) [2-amino-8-methyl-1-oxa-2-aza-spiro[4,5]dec-2-en-4-one], which Activity (central nervous system; dose 500 mg/kg) is on record?
**A.** depressant

**Q.** And the LD50 [1]?
**A.** > 1000 mg/kg

**Q.** What does the source list for `NC1=NC(=O)C2(CCC3CCCCC3C2)O1` (stereo not drawn) [2'-amino-octahydrospiro[naphthalene-2(1H),5'-[2]oxazolin]-4'-one]?
**A.** Activity (central nervous system; dose 500 mg/kg): depressant; LD50 [1]: > 1000 mg/kg

**Q.** Which results are given for `CN1CCC2(CC1)OC(N)=NC2=O` [2-amino-8-methyl-1-oxa-3,8-diazaspiro[4,5]dec-2-en-4-one]?
**A.** Activity (central nervous system; dose 10 mg/kg): stimulant; LD50 [1]: > 1000 mg/kg; Mean Escape Time, Retention Trial (rats; intraperitoneal, 10 mg/kg): 13.8 ± 1.4 s; Mean Escape Time (rats; intraperitoneal, 10 mg/kg, acquisition trial 1): 29.8 ± 0.3 s; Mean Escape Time (rats; intraperitoneal, 10 mg/kg, acquisition trial 2): 29.5 ± 0.5 s; Mean Escape Time (rats; intraperitoneal, 10 mg/kg, acquisition trial 3): 13.8 ± 1.7 s; Mean Escape Time (rats; intraperitoneal, 10 mg/kg, acquisition trial 4): 12.0 ± 2.1 s; Mean Escape Time (rats; intraperitoneal, 10 mg/kg, acquisition trial 5): 7.0 ± 1.6 s; Mean Escape Time (rats; intraperitoneal, 10 mg/kg, acquisition trial 6): 7.8 ± 1.5 s; Mean Escape Time (rats; intraperitoneal, 10 mg/kg, acquisition trial 7): 6.5 ± 1.6 s; Mean Escape Time (rats; intraperitoneal, 10 mg/kg, acquisition trial 8): 7.0 ± 2.2 s; Mean Escape Time (rats; intraperitoneal, 10 mg/kg, acquisition trial 9): 10.8 ± 3.0 s; Mean Escape Time (rats; intraperitoneal, 10 mg/kg, acquisition trial 10): 9.0 ± 1.2 s

**Q.** Which Activity (central nervous system; dose 200 mg/kg) does the source give for `NC1=NC(=O)C2(CCN(Cc3ccccc3)CC2)O1` [2-amino-8-benzyl-1-oxa-3,8-diazaspiro[4,5]dec-2-en-4-one] here?
**A.** depressant

**Q.** What about the LD50 [1] of the same molecule?
**A.** > 1000 mg/kg

**Q.** With `NC1=NC(=O)C2(CCCCCC2)O1` [2-amino-1-oxa-3-azaspiro[4,6]undec-2-en-4-one] as the molecule, how does the Activity (central nervous system; dose 500 mg/kg) read?
**A.** depressant

**Q.** And the LD50 [1]?
**A.** > 1000 mg/kg

**Q.** Which Activity (central nervous system; dose 200 mg/kg) does the source give for `NC1=NC(=O)C2(CCC2)O1` [6-amino-5-oxa-7-azaspiro[3,4]oct-6-en-8-one] here?
**A.** depressant

**Q.** What about the LD50 [1] of the same molecule?
**A.** > 500 mg/kg

**Q.** What does the source list for `NC1=NC(=O)C2(CCCCCCC2)O1` [2-amino-1-oxa-3-azaspiro[4,7]dodec-2-en-4-one]?
**A.** Activity (central nervous system; dose 500 mg/kg): depressant; LD50 [1]: > 1000 mg/kg
